Where a name gives a salt, the structure may show the parent alone.
Tests used:
hROMK (hKir1.1) = hROMK (hKir1.1) (Homo sapiens (Human), UniProt P48048); assay: Thallium Flux Assay (ROMK channel functional thallium flux, FLIPR-Tetra); type: cell-based; conditions: HEK293 cells stably expressing hROMK (hKir1.1); read-out: Thallium Flux IC50
Procedure: HEK293 cells stably expressing hROMK (hKir1.1) were grown at 37° C. in a 10% CO2 humidified incubator in complete growth media: Dulbecco's Modified Eagle Medium supplemented with non-essential amino acids, Penicillin/Streptomycin/Glutamine, G418 and FBS. At >80% confluency, aspirate the media from the flask and rinse with 10 mL Calcium/Magnesium-free PBS. […] To dislodge the cell, gently bang the side of the flask with your hand. Triturate the cells completely and then transfer the cells to 25 mL complete media. Centrifuge at 1,500 rpm for 6 min followed by resuspension in complete growth media and determine cell concentration.
Compound Buffer (per microplate): 20 mL Probenecid/Assay Buffer; 0.3 mM ouabain (10 mM ouabain in water can be stored in amber bottle/aluminum foil at room temperature); Test compound
Stimulant Buffer (prepared at 5× final concentration in 1× FluxOR™ Chloride-Free Buffer): 7.5 mM Thallium sulfate and […] (to give a final assay concentration of 3 mM Thallium/0.3 mM Potassium). Store at 4° C. when not in use. If kept sterile, this solution is good for months.
The ROMK channel functional thallium flux assay is performed in 384 wells, using the FLIPR-Tetra instrument. HEK-hKir1.1 cells are seeded in Poly-D-Lysine microplates and kept in a 37° C.-10% CO2 incubator overnight. On the day of the experiment, the growth media is replaced with the FluxOR™ reagent loading buffer and incubated, protected from light, at ambient temperature (23-25° C.) for 90 min. The loading buffer is replaced with assay buffer±test compound followed by 30 min incubation at ambient temperature, where the Thallium/Potassium stimulant is added to the microplate.
1. Seed HEK-hKir1.1 cells (50 μl at 20,000 cells/well) in 384-well PDL coated Microplates
2. Allow cells to adhere overnight in humidified 37° C./10% CO2 incubator
3. Completely remove cell growth media from microplate and replace with 25 μl loading buffer
4. Incubate Microplate at room temperature, protected form light, for 90 min
5. Remove loading buffer and replace with 25 μl 1× Assay Buffer±test compound.
6. Incubate microplate at room temperature, protected from light, for 30 min
7. […] Excitation=400 nm, Emission=460 & 580 nm. Collect data for ˜10 min.
The fluorescence intensity of wells containing 3 μM of a standard control ROMK inhibitor of the present invention is used to define the ROMK-sensitive component of thallium flux. Fluorescence in the presence of test compounds is normalized to control values to provide % fluorescence change.

Kir1.1 (ROMK1) = Kir1.1 (ROMK1) (Homo sapiens (Human), UniProt P48048); assay: Electrophysiology Assay (whole cell voltage clamp, IonWorks Quattro); type: cell-based; conditions: Chinese hamster ovary cells stably expressing Kir1.1; block during voltage step to 0 mV; read-out: Electrophysiology IC50
Chain of Kir1.1 (ROMK1) (P48048 whole entry, species assumed): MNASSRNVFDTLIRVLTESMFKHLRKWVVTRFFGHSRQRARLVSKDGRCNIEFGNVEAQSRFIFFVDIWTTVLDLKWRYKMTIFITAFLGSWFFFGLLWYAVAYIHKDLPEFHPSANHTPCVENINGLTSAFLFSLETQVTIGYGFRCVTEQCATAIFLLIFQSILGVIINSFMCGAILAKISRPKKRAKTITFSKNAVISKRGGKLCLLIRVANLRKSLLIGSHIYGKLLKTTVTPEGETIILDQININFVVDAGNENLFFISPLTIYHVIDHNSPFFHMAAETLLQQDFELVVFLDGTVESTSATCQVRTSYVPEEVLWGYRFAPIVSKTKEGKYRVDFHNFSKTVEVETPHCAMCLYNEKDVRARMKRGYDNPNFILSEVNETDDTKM
Procedure: Chinese hamster ovary cells stably expressing Kir1.1 channels were maintained in T-75 flasks in cell culture media in a humidified 10% CO2 incubator at 37° C. Prior to an experiment, Kir1.1 expression was induced by overnight incubation with 1 mM sodium butyrate. […] After centrifugation, the cell pellet was resuspended in approximately 4.0 mL of bath solution and placed in the IonWorks instrument. The intracellular solution consisted of (in mM): 80 K gluconate, 40 KCl, 20 KF, 3.2 MgCl2, 3 EGTA, 5 Hepes, pH 7.4. Electrical access to the cytoplasm was achieved by perforation in 0.13 mg/mL amphotericin B for 4 min. […] Voltage protocols and current recordings were performed using the IonWorks HT software/hardware system. Currents were sampled at 1 kHz. No correction for liquid junction potentials was used. The test pulse, consisting of a 100 ms step to 0 mV from a holding potential of −70 mV, followed by a 100 ms voltage ramp from −70 mV to +70 mV, was applied before and after a 6 min compound incubation period. Test compounds were prepared by diluting DMSO stock solutions into the bath solution at 3× the final concentration and placed in the instrument in 96-well polypropylene plates. Current amplitudes were measured using the IonWorks software.

Chain of hROMK (hKir1.1) (P48048 whole entry): as the sequence (P48048 whole entry, species assumed) above

| Structure (SMILES) | IC50 (hROMK (hKir1.1)) [nM] | IC50 (Kir1.1 (ROMK1)) [nM] |
| --- | --- | --- |
| Cc1c([C@@H]2CN3CCN(CC(O)c4ccc5c(c4)C[C@H](C)OC5=O)C[C@H]3CO2)ccc2c1COC2=O (single isomer, unassigned) [Example 45] | 470 | 120 |
| Cc1c([C@@H]2CN3CCN(CC(O)c4ccc5c(c4)C[C@@H](C)OC5=O)C[C@H]3CO2)ccc2c1COC2=O (single isomer, unassigned) [Example 46] | 280 | 110 |
| COc1cc(C(O)CN2CCN3C[C@@H](c4ccc5c(c4C)COC5=O)OC[C@@H]3C2)ccc1C#N (single isomer, unassigned) [Example 47] | 250 | 190 |
| Cc1c([C@@H]2CN3CCN(CC(O)c4cc(F)c(C#N)c(F)c4)C[C@H]3CO2)ccc2c1COC2=O (single isomer, unassigned) [Example 49] | 250 | 50 |
| Cc1c([C@@H]2CN3CCN(CC(O)c4ccc5c(c4C4CC4)COC5=O)C[C@H]3CO2)ccc2c1COC2=O (single isomer, unassigned) [Example 50] | 440 | 250 |
| Cc1c([C@@H]2CN3CCN(CC(O)c4ccc5c(c4C4CC4)COC5=O)C[C@H]3CO2)ccc2c1COC2=O (single isomer, unassigned) [Example 51] | 400 | 230 |
| COc1cc(C(O)CN2CCN3C[C@@H](c4ccc5c(c4C)COC5=O)OC[C@@H]3C2)cc(F)c1C#N (single isomer, unassigned) [Example 54] | 340 | 170 |
| COc1cc([C@H]2CN3CCN(C[C@H](O)c4ccc5c(c4C)COC5=O)C[C@@H]3CO2)ccc1C#N [Example 1, 4-{(3S,9aR)-8-[(2R)-2-hydroxy-2-(4-methyl-1-oxo-1,3-dihydro-2-benzofuran-5-yl)ethyl]octahydropyrazino[2,1-c][1,4]oxazin-3-yl}-2-methoxybenzonitrile] | 220 | 110 |
| Cc1c([C@H](O)CN2CCN3C[C@@H](c4ccc5c(c4C)COC5=O)OC[C@@H]3C2)ccc2c1COC2=O [Example 2, 5-((S)-1-hydroxy-2-((3R,9aS)-3-(4-methyl-1-oxo-1,3-dihydroisobenzofuran-5-yl)hexahydropyrazino[2,1-c][1,4]oxazin-8(1H)-yl)ethyl)-4-methylisobenzofuran-1(3H)-one] | 230 | 80 |
| Cc1c([C@@H]2CN3CCN(C[C@H](O)c4ccc5c(c4C)COC5=O)C[C@H]3CO2)ccc2c1COC2=O [Example 3, 5-((R)-1-hydroxy-2-((3R,9aS)-3-(4-methyl-1-oxo-1,3-dihydroisobenzofuran-5-yl)hexahydropyrazino[2,1-c][1,4]oxazin-8(1H)-yl)ethyl)-4-methylisobenzofuran-1(3H)-one] | 120 | 50 |
| COc1cc([C@H]2CN3CCN(CC(O)c4ccc5c(c4C)COC5=O)C[C@H]3CO2)ccc1C#N (stereo partly drawn) [Example 4, (3S,9aS)-3-(4-cyano-3-methoxyphenyl)-8-[2-hydroxy-2-(4-methyl-1-oxo-1,3-dihydro-2-benzofuran-5-yl)ethyl]octahydropyrazino[2,1-c][1,4]oxazin-5-ium chloride] | 430 | 80 |
| COc1cc(C(O)CN2CCN3C[C@@H](c4ccc5c(c4)COC5=O)OC[C@@H]3C2)c(Cl)cc1C#N (stereo partly drawn) [Example 10, (3R,9aS)-8-[2-(2-chloro-4-cyano-5-methoxyphenyl)-2-hydroxyethyl]-3-(1-oxo-1,3-dihydro-2-benzofuran-5-yl)octahydropyrazino[2,1-c][1,4]oxazin-5-ium trifluoroacetate] | 550 | 130 |
| Cc1c([C@@H](O)CN2CCN3C[C@@H](c4ccc5c(c4)COC5=O)OC[C@@H]3C2)ccc2c1COC2=O [Example 11, (3R,9aS)-8-[(2R)-2-hydroxy-2-(4-methyl-1-oxo-1,3-dihydro-2-benzofuran-5-yl)ethyl]-3-(1-oxo-1,3-dihydro-2-benzofuran-5-yl)octahydropyrazino[2,1-c][1,4]oxazin-5-ium trifluoroacetatep] | 360 | 60 |
| Cc1c([C@H](O)CN2CCN3C[C@@H](c4ccc5c(c4)COC5=O)OC[C@@H]3C2)ccc2c1COC2=O [Example 12, (3R,9aS)-8-[(2S)-2-hydroxy-2-(4-methyl-1-oxo-1,3-dihydro-2-benzofuran-5-yl)ethyl]-3-(1-oxo-1,3-dihydro-2-benzofuran-5-yl)octahydropyrazino[2,1-c][1,4]oxazin-5-ium chloride] | 190 | 30 |
| Cc1c(C(O)CN2CCN3C[C@@H](c4ccc5c(c4C)COC5=O)OC[C@@H]3C2)ccc(F)c1C#N (stereo partly drawn) [Example 13, (3R,9aS)-8-[2-(3-cyano-4-fluoro-2-methylphenyl)-2-hydroxyethyl]-3-(4-methyl-1-oxo-1,3-dihydro-2-benzofuran-5-yl)octahydropyrazino[2,1-c][1,4]oxazin-5-ium trifluoroacetate] | 270 | 220 |
| COc1cc([C@H]2CN3CCN(CC(O)c4cc(OC)c(C#N)cc4F)C[C@@H]3CO2)ccc1C#N (stereo partly drawn) [Example 14, (3S,9aR)-8-[2-(4-cyano-2-fluoro-5-methoxyphenyl)-2-hydroxyethyl]-3-(4-cyano-3-methoxyphenyl)octahydropyrazino[2,1-c][1,4]oxazin-5-ium chloride] | 580 | 270 |
| COc1cc(C(O)CN2CCN3C[C@@H](c4ccc5c(c4C)COC5=O)OC[C@@H]3C2)c(F)cc1C#N (stereo partly drawn) [Example 15, (3R,9aS)-8-[2-(4-cyano-2-fluoro-5-methoxyphenyl)-2-hydroxyethyl]-3-(4-methyl-1-oxo-1,3-dihydro-2-benzofuran-5-yl)octahydropyrazino[2,1-c][1,4]oxazin-5-ium chloride] | 670 | 290 |
| Cc1c([C@@H](O)CN2CCN3C[C@H](c4ccc(C#N)c(F)c4)OC[C@H]3C2)ccc2c1COC2=O [Example 28, (3S,9aR)-3-(4-cyano-3-fluorophenyl)-8-[(2R)-2-hydroxy-2-(4-methyl-1-oxo-1,3-dihydro-2-benzofuran-5-yl)ethyl]octahydropyrazino[2,1-c][1,4]oxazin-8-ium chloride] | 190 | 90 |
| Cc1c([C@@H](O)CN2CCN3C[C@@H](c4ccc(C#N)c(F)c4)OC[C@H]3C2)ccc2c1COC2=O [Example 29, (3R,9aR)-3-(4-cyano-3-fluorophenyl)-8-[(2R)-2-hydroxy-2-(4-methyl-1-oxo-1,3-dihydro-2-benzofuran-5-yl)ethyl]octahydropyrazino[2,1-c][1,4]oxazin-8-ium chloride] | 490 | 80 |
| COc1c([C@@H]2CN3CCN(C[C@H](O)c4ccc5c(c4C)COC5=O)C[C@@H]3CO2)ccc(C#N)c1F [Example 32, (3R,9aR)-3-(4-cyano-3-fluoro-2-methoxyphenyl)-8-[(2R)-2-hydroxy-2-(4-methyl-1-oxo-1,3-dihydro-2-benzofuran-5-yl)ethyl]octahydropyrazino[2,1-c][1,4]oxazin-8-ium chloride] | 280 | 180 |
| COc1cc(C(O)CN2CCN3C[C@H](c4ccc5c(c4C)COC5=O)OC[C@H]3C2)c(F)cc1C#N (stereo partly drawn) [Example 36, (3S,9aR)-8-[2-(4-cyano-2-fluoro-5-methoxyphenyl)-2-hydroxyethyl]-3-(4-methyl-1-oxo-1,3-dihydro-2-benzofuran-5-yl)octahydropyrazino[2,1-c][1,4]oxazin-5-ium chloride] | 390 | 120 |
